Measurements reported in US9067926B2, “Fluoromethyl-5,6-dihydro-4H-[1,3]OXAZINES” (F. Hoffmann-La Roche AG, priority 2012, dated 2015).

What was measured:
CYP2C9 = biological target: T1, CYP2C9 (Homo sapiens, UniProt P11712); experiment: CYP inhibition assay, CYP2C9; format: in vitro ADME; details: pooled human liver microsomes, diclofenac substrate; read-out: CYP IC50 2C9
T1 construct: 0.2 mg/ml pooled human liver microsomes; from tissue; host or cells: pooled human liver microsomes
Procedure: (§1) Inhibition of cytochromes P450 (CYPs) 2C9, 2D6 and 3A4 was assessed using human liver microsomes and CYP-selective substrate metabolism reactions. […] Quenched incubates were stored at −20° C. for at least 1 hour before centrifugation (20,000×g, 20 minutes). Supernatants were removed and diluted 1:1 with water prior to analysis using a RapidFire sample injector system and API4000 mass spectrometer. Peak areas for substrate, metabolite and stable-labelled metabolite standard were determined using MS/MS. The peak area ratios between the metabolite generated by the enzymatic reaction and the internal standard were used in subsequent calculations. The percentage of (DMSO) control activity was calculated for each incubate and IC50 values estimated by non-linear regression. Sulfaphenazole, quinidine or ketoconazole were tested in each CYP2C9, CYP2D6 or CYP3A4 inhibition experiment, respectively, to ensure assay sensitivity and reproducibility.

[1] = biological target: T2, recombinant human cathepsin E (Homo sapiens, UniProt P14091); experiment: Cathepsin E fluorescent substrate kinetic assay; format: biochemical; details: pH 4.5
T2 construct: purchased R&D Systems
T2 sequence (P14091 54-396): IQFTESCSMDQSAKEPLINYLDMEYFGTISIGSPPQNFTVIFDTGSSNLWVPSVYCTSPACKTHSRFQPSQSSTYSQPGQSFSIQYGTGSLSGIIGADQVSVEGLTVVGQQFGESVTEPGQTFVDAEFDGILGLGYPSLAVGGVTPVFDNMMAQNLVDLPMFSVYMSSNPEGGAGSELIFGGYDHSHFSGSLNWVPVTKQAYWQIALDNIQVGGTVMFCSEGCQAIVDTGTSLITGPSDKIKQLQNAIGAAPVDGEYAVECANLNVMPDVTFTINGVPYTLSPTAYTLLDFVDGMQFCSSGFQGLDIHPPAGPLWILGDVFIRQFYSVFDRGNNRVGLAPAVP
Description: Cathepsin D and Cathepsin E Fluorescent Substrate Kinetic Assays
The MR121 fluorescence assays described below are based on the fact that MR121 forms a non-fluorescent ground state complex with tryptophan. In solution this formation occurs at millimolar concentrations of tryptophan. The mechanism can be used to design a generic biochemical assay for proteases. […] In absence of protease activity, the substrates remain intact and the MR121 fluorescence is reduced by the high local Trp-concentration. If the substrates are cleaved by the enzymes the MR121 fluorescence is recovered.
The fluorescent substrate cathepsin D and cathepsin E kinetic assays were performed at room temperature in 384-well microtiter plates (black with clear flat bottom, non binding surface plates from Corning) in a final volume of 51 μl. The test compounds were serially diluted in DMSO (15 concentrations, 1/3 dilution steps) and 1 μl of diluted compounds were mixed for 10 min with 40 μl of cathepsin D (from human liver, Calbiochem) diluted in assay buffer (100 mM sodium acetate, 0.05% BSA, pH 5.5; final concentration: 200 nM) or with 40 μl of recombinant human cathepsin E (R&D Systems) diluted in assay buffer (100 mM sodium acetate, 0.05% BSA, pH 4.5; final concentration: 0.01 nM). […] The slope in the linear range of the kinetic was calculated and the IC50 of the test compounds were determined using a four parameter equation for curve fitting.

BACE1 = biological target: T3, BACE1 (Homo sapiens, UniProt P56817); experiment: Cellular Aβ-lowering assay (Abeta 40 AlphaLISA); format: cell-based; details: HEK293 APP cells, 18-20 hrs incubation, Aβ 40 in culture supernatant; read-out: BACE1 cell act. Aβ40 IC50
T3 construct: endogenous in cells; host or cells: HEK293 APP cells
T3 sequence (P56817 46-501): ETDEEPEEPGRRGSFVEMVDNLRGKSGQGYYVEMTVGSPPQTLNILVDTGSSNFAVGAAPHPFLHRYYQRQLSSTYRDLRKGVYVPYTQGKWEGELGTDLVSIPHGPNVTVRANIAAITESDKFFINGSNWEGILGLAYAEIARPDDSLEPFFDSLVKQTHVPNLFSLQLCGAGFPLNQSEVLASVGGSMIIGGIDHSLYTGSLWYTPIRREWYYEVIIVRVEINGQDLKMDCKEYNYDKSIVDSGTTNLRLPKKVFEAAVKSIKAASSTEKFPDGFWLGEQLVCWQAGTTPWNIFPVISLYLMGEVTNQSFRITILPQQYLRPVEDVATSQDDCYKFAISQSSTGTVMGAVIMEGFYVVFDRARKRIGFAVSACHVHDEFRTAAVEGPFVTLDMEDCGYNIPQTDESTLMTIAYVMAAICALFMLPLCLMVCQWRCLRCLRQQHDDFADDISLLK
Procedure: Cellular Aβ-Lowering Assay:
The Abeta 40 AlphaLISA Assay can be used. The HEK293 APP cells were seeded in 96 well Microtiter plates in cell culture medium (Iscove's, plus 10% (vv) fetal bovine serum, penicillinstreptomycin) to about 80% confluency and the compounds were added at a 3× concentration in 13 volume of culture medium (final DMSO concentration was kept at 1% vv). After 18-20 hrs incubation at 37° C. and 5% CO2 in a humidified incubator, the culture supernatants were harvested for the determination of Aβ 40 concentrations using Perkin-Elmer Human Amyloid beta 1-40 (high specificity) Kit (Cat# AL275C).
Levels of Aβ 40 in the culture supernatants were calculated as percentage of maximum signal (cells treated with 1% DMSO without inhibitor). The IC50 values were calculated using the Excel XLfit software.

CYP2D6 = biological target: T4, CYP2D6 (Homo sapiens, UniProt P10635); experiment: CYP inhibition assay, CYP2D6; format: in vitro ADME; details: pooled human liver microsomes, dextromethorphan substrate; read-out: CYP IC50 2D6
T4 construct: 0.2 mg/ml pooled human liver microsomes; from tissue; host or cells: pooled human liver microsomes
T4 sequence (P10635 whole entry): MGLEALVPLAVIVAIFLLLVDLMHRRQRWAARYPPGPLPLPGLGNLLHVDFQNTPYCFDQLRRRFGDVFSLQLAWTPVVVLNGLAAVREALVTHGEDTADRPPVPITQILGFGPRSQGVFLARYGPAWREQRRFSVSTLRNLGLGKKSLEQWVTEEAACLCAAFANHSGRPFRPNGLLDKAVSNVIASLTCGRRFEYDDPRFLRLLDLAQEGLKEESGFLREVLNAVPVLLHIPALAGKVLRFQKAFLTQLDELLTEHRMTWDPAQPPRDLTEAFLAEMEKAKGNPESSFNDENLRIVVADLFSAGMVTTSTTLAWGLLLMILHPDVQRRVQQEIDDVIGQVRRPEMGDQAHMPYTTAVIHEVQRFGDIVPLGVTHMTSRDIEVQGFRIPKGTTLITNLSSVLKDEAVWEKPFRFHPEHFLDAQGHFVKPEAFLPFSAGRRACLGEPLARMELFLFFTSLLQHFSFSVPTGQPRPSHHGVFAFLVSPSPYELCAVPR
Procedure: as §1

hERG = hERG (Homo sapiens, UniProt Q12809); experiment: hERG current measurement (automated patch clamp); format: cell-based
Sequence of hERG (Q12809 whole entry): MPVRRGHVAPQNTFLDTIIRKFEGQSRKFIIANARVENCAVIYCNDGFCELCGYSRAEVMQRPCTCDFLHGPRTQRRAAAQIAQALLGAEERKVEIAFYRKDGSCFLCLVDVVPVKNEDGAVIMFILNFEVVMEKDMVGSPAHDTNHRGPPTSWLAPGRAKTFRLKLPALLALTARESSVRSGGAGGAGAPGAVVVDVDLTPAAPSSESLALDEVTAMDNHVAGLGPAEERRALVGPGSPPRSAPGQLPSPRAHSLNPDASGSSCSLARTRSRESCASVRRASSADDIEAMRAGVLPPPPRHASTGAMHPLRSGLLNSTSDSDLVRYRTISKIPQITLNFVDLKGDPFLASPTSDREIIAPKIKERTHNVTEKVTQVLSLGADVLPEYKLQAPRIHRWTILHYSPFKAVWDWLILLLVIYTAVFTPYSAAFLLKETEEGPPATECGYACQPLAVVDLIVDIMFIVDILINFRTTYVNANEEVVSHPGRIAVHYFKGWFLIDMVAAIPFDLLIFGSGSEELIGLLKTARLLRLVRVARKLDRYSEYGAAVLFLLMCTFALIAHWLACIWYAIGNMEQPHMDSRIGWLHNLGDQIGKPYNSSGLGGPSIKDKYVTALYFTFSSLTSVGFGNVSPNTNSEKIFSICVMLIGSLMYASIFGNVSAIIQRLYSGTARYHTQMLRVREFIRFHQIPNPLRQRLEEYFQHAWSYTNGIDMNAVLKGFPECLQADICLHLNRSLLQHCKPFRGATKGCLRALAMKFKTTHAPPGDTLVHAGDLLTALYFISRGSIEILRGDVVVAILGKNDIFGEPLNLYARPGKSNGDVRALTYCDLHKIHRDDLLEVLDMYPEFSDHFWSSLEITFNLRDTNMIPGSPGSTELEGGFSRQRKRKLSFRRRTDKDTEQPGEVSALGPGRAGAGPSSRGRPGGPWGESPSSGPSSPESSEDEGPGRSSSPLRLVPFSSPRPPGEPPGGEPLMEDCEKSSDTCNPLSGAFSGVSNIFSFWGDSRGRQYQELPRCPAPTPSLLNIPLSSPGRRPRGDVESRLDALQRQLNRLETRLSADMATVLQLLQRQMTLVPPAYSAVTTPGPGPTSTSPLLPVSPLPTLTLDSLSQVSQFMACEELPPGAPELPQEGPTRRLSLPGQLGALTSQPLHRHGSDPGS
Procedure: The hERG current measurement was performed at an automated patch clamp system following the procedure described in R. E. Martin et al. in Bio org.

T1 sequence (P11712 whole entry): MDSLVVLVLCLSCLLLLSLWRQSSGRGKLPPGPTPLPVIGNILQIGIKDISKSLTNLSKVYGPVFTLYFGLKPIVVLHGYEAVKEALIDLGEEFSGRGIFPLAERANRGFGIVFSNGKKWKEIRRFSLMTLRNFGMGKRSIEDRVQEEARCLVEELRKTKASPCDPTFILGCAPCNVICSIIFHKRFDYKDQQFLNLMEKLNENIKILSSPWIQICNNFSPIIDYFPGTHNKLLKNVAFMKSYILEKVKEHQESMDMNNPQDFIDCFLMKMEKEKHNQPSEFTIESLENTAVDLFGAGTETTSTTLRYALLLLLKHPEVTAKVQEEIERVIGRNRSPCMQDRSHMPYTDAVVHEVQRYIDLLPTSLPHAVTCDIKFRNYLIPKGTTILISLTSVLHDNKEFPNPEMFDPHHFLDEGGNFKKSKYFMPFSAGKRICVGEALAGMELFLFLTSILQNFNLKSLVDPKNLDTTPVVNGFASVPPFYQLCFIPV

IC50 (CYP2C9) [µM]	IC50 [1] [µM]	IC50 (BACE1) [µM]	IC50 (CYP2D6) [µM]	Structure (SMILES)	hERG Inhibition @ 10 μM (hERG)
> 50	> 200	0.005	3.9	C[C@@]1(c2cc(NC(=O)c3ccc(Cl)cn3)ccc2F)C[C@@H](C(F)(F)F)OC(N)=N1 [Example 2, N-(3-((4S,6S)-2-amino-4-methyl-6-(trifluoromethyl)-5,6-dihydro-4H-1,3-oxazin-4-yl)-4-fluorophenyl)-5-chloropicolinamide]	84
> 50	> 200	0.004	1.6	C[C@@]1(c2cc(NC(=O)c3ccc(OCF)cn3)ccc2F)C[C@@H](C(F)(F)F)OC(N)=N1 [Example 11, N-(3-((4S,6S)-2-Amino-4-methyl-6-(trifluoromethyl)-5,6-dihydro-4H-1,3-oxazin-4-yl)-4-fluorophenyl)-5-(fluoromethoxy)picolinamide]	26
33	> 200	0.0002	13	CC#CCOc1cnc(C(=O)Nc2ccc(F)c([C@]3(C)C[C@@H](C(F)(F)F)OC(N)=N3)c2)cn1 [Example 22, N-(3-((4S,6S)-2-Amino-4-methyl-6-(trifluoromethyl)-5,6-dihydro-4H-1,3-oxazin-4-yl)-4-fluorophenyl)-5-(but-2-ynyloxy)pyrazine-2-carboxamide]	
33	> 200	0.019	5.2	NC1=N[C@](CF)(c2cc(NC(=O)c3ccc(OCF)cn3)ccc2F)C[C@@H](C(F)(F)F)O1 [Example 35, N-(3-((4S,6S)-2-Amino-4-(fluoromethyl)-6-(trifluoromethyl)-5,6-dihydro-4H-1,3-oxazin-4-yl)-4-fluorophenyl)-5-(fluoromethoxy)picolinamide]	26
